This is an account of results in patent US9540366B2, “Ring-fused heterocyclic compound” (Kyowa Hakko Kirin Co., Ltd., priority 2012, dated 2017).

The IC50 is the concentration needed to halve the response being measured.

T1 sequence (O95180 whole entry): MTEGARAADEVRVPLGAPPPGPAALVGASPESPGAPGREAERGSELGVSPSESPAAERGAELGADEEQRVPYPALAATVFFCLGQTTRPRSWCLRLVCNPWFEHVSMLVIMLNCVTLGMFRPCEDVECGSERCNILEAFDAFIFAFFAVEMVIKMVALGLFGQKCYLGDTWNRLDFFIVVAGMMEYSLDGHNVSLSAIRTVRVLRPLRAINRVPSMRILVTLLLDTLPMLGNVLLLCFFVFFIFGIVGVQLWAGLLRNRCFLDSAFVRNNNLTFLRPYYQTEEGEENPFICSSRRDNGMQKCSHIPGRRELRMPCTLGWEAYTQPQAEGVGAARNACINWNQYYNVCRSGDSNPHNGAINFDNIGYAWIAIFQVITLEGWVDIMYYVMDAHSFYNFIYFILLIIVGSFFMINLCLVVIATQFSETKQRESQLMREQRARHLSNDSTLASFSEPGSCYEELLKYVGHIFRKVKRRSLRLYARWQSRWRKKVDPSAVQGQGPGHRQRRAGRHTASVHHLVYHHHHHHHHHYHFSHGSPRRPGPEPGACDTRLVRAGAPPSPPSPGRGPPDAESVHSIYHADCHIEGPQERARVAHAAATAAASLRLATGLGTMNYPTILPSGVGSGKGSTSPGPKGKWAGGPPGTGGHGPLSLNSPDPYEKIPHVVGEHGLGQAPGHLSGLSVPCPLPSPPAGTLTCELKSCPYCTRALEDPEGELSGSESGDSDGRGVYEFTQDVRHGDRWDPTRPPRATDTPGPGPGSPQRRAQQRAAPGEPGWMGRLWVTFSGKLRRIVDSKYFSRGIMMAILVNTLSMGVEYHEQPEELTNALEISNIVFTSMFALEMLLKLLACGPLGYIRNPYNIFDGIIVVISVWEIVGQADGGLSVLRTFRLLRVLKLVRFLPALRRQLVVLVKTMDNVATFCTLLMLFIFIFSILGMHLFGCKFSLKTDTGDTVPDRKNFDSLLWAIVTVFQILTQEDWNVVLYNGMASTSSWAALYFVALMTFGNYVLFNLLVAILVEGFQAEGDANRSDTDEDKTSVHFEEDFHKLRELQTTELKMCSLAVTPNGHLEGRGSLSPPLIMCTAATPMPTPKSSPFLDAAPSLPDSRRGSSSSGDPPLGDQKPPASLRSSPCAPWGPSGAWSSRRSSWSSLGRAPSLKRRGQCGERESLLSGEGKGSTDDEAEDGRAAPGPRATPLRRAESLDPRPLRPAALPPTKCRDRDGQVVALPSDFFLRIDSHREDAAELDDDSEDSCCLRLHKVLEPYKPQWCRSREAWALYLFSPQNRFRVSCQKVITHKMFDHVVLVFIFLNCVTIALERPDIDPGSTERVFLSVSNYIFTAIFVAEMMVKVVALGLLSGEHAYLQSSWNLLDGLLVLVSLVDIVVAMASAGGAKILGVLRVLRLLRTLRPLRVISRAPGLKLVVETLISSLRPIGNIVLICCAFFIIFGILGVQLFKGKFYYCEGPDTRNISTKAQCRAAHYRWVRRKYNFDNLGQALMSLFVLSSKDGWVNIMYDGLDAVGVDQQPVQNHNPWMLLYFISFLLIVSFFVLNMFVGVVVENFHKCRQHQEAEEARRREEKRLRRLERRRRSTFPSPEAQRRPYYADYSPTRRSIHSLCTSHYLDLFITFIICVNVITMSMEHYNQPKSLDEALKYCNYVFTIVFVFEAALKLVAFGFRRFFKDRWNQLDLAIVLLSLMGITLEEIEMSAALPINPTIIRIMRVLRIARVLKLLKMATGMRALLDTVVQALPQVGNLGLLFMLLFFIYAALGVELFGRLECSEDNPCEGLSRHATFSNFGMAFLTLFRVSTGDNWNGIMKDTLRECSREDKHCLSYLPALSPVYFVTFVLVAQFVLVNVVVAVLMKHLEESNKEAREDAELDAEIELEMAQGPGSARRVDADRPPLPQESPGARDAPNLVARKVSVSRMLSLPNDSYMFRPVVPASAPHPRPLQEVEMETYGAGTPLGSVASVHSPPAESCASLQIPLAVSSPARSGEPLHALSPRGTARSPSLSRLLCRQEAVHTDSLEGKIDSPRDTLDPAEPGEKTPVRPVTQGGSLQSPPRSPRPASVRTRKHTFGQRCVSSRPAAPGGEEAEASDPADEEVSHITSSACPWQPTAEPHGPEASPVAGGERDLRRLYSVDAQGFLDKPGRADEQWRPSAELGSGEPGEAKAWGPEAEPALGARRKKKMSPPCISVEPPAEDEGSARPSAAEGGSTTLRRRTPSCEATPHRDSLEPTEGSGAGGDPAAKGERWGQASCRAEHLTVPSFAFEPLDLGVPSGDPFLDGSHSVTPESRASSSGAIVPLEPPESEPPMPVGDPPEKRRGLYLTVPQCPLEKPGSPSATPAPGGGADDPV

One assay has as its target T1, human Cav3.2 T-type Ca2+ channel (Homo sapiens, UniProt O95180).
T1 construct: expressed in transfected cells; host or cells: KJMGER8 cells (Namalwa cell-derived cell line)
Nature of the assay: Inhibitory effect for intracellular calcium response via Cav3.2 T-type Ca2+ channels (FLIPR Calcium 3 Assay Kit). The assay is classed as cell-based.
Conditions: not given
In general terms: Calcium flux is commonly read through the fluorescence of an indicator in the cells.
`CCOC(C)(C)c1nc2cc(C(=O)NC3CCOCC3)cc(C)n2c1CC1CCC(F)(F)CC1` [Compound 1, 3-[(4,4-Difluorocyclohexyl)methyl]-2-(2-ethoxypropan-2-yl)-5-methyl-N-(tetrahydro-2H-pyran-4-yl)imidazo[1,2-a]pyridine-7-carboxamide]: the IC50 is ≤ 100 nM.
With `CC1(CNC(=O)c2cc(C#N)n3c(CC4CCC(F)(F)CC4)c(C(F)(F)F)nc3c2)CCCO1` (stereo not shown) [Compound 2, 5-Cyano-3-[(4,4-difluorocyclohexyl)methyl]-N-[(2-methyltetrahydrofuran-2-yl)methyl]-2-(trifluoromethyl)imidazo[1,2-a]pyridine-7-carboxamide], the IC50 is ≤ 100 nM.
Take `N#Cc1cc(C(=O)NCC2CCOC2)cc2nc(C(F)(F)F)c(CC3CCC(F)(F)CC3)n12` (stereo not shown) [Compound 3, 5-Cyano-3-[(4,4-difluorocyclohexyl)methyl]-N-[(tetrahydrofuran-3-yl)methyl]-2-(trifluoromethyl)imidazo[1,2-a]pyridine-7-carboxamide]: the IC50 is ≤ 100 nM.
On to `Cc1cc(C(=O)NC2CCOCC2)cc2nc(C(C)(C)C)c(CC3CCC(F)(F)CC3)n12` [Compound 4, 2-tert-Butyl-3-[(4,4-difluorocyclohexyl)methyl]-5-methyl-N-(tetrahydro-2H-pyran-4-yl)imidazo[1,2-a]pyridine-7-carboxamide], for which the IC50 was ≤ 100 nM.
As to `CC(F)(F)c1nc2cc(C(=O)Nc3ccccc3)c(Cl)cn2c1CC1CCC(F)(F)CC1` [Compound 5, 6-Chloro-3-[(4,4-difluorocyclohexyl)methyl]-2-(1,1-difluoroethyl)-N-phenylimidazo[1,2-a]pyridine-7-carboxamide], the half-inhibitory concentration (IC50) is ≤ 100 nM.
As for `O=C(Nc1ccccc1)c1cc2nc(C3CC3)c(CC3CCC(F)(F)CC3)n2cc1Cl` [Compound 6, 6-Chloro-2-cyclopropyl-3-[(4,4-difluorocyclohexyl)methyl]-N-phenylimidazo[1,2-a]pyridine-7-carboxamide], the IC50 is ≤ 100 nM.
On to `O=C(Nc1ccccc1)c1cc2nc(C3CC(F)(F)C3)c(CC3CCC(F)(F)CC3)n2cc1Cl` [Compound 7, 6-Chloro-2-(3,3-difluorocyclobutyl)-3-[(4,4-difluorocyclohexyl)methyl]-N-phenylimidazo[1,2-a]pyridine-7-carboxamide], for which the IC50 is ≤ 100 nM.
As to `Cc1cc(C(=O)Nc2ccccc2)cc2nc(C(C)(C)O)c(CC3CCC(F)(F)CC3)n12` [Compound 8, 3-[(4,4-Difluorocyclohexyl)methyl]-2-(2-hydroxypropan-2-yl)-5-methyl-N-phenylimidazo[1,2-a]pyridine-7-carboxamide], the IC50 is ≤ 100 nM.
As for `Cc1cc(C(=O)NC2CC(F)(F)C2)cc2nc(C(C)(C)O)c(CC3CCC(F)(F)CC3)n12` [Compound 10, N-(3,3-Difluorocyclobutyl)-3-[(4,4-difluorocyclohexyl)methyl]-2-(2-hydroxypropan-2-yl)-5-methylimidazo[1,2-a]pyridine-7-carboxamide], the IC50 is ≤ 100 nM.
Take `[2H]C([2H])([2H])OC(C)(C)c1nc2cc(C(=O)NC3CCOCC3)cc(C)n2c1CC1CCC(F)(F)CC1` [Compound 11, 3-[(4,4-Difluorocyclohexyl)methyl]-2-(2-methoxy-d3-propan-2-yl)-5-methyl-N-(tetrahydro-2H-pyran-4-yl)imidazo[1,2-a]pyridine-7-carboxamide]: the IC50 was ≤ 100 nM.
Consider `O=C(NC1CCC(F)(F)CC1)c1cc2nc(C3CC3)c(CC3CCC(F)(F)CC3)n2cc1Cl` [Compound 14, 6-Chloro-2-cyclopropyl-N-(4,4-difluorocyclohexyl)-3-[(4,4-difluorocyclohexyl)methyl]imidazo[1,2-a]pyridine-7-carboxamide], for which the IC50 was ≤ 100 nM.
For `CC(=O)c1nc2cc(C(=O)Nc3ccccc3)cc(C)n2c1CC1CCC(F)(F)CC1` [Compound 19, 2-Acetyl-3-[(4,4-difluorocyclohexyl)methyl]-5-methyl-N-phenylimidazo[1,2-a]pyridine-7-carboxamide], the IC50 was ≤ 100 nM.
On to `CC(F)(F)c1nc2cc(C(=O)NCC3CC3)c(Cl)cn2c1CC1CCC(F)(F)CC1` [Compound 21, 6-Chloro-N-(cyclopropylmethyl)-3-[(4,4-difluorocyclohexyl)methyl]-2-(1,1-difluoroethyl)imidazo[1,2-a]pyridine-7-carboxamide], for which the IC50 is ≤ 100 nM.
Consider `CC(F)(F)c1nc2cc(C(=O)NC3CCC3)c(Cl)cn2c1CC1CCC(F)(F)CC1` [Compound 22, 6-Chloro-N-cyclobutyl-3-[(4,4-difluorocyclohexyl)methyl]-2-(1,1-difluoroethyl)imidazo[1,2-a]pyridine-7-carboxamide], for which the IC50 is ≤ 100 nM.
In the case of `CC1(C)CC(NC(=O)c2cc3nc(C(C)(F)F)c(CC4CCC(F)(F)CC4)n3cc2Cl)CCO1` (stereo not shown) [Compound 23, 6-Chloro-3-[(4,4-difluorocyclohexyl)methyl]-2-(1,1-difluoroethyl)-N-(2,2-dimethyltetrahydro-2H-pyran-4-yl)imidazo[1,2-a]pyridine-7-carboxamide], the IC50 was ≤ 100 nM.
For `CC(F)(F)c1nc2cc(C(=O)NCC3CCOC3)c(Cl)cn2c1CC1CCC(F)(F)CC1` (stereo not shown) [Compound 24, 6-Chloro-3-[(4,4-difluorocyclohexyl)methyl]-2-(1,1-difluoroethyl)-N-[(tetrahydrofuran-3-yl)methyl]imidazo[1,2-a]pyridine-7-carboxamide], the IC50 is ≤ 100 nM.
Same read-out and setting: then `CC(F)(F)c1nc2cc(C(=O)NC3CCC(O)CC3)c(Cl)cn2c1CC1CCC(F)(F)CC1` (stereo not shown) [Compound 25, 6-Chloro-3-[(4,4-difluorocyclohexyl)methyl]-2-(1,1-difluoroethyl)-N-(4-hydroxycyclohexyl)imidazo[1,2-a]pyridine-7-carboxamide], with ≤ 100 nM; and `CC(C)(O)CNC(=O)c1cc2nc(C(C)(F)F)c(CC3CCC(F)(F)CC3)n2cc1Cl` [Compound 26, 6-Chloro-3-[(4,4-difluorocyclohexyl)methyl]-2-(1,1-difluoroethyl)-N-(2-hydroxy-2-methylpropyl)imidazo[1,2-a]pyridine-7-carboxamide], with ≤ 100 nM.
In the case of `CCC(F)(F)c1nc2cc(C(=O)NC3CCOCC3)cc(C)n2c1CC1CCC(F)(F)CC1` [Compound 27, 3-[(4,4-Difluorocyclohexyl)methyl]-2-(1,1-difluoropropyl)-5-methyl-N-(tetrahydro-2H-pyran-4-yl)imidazo[1,2-a]pyridine-7-carboxamide], the IC50 was ≤ 100 nM.

The same assay, now with this note: human Cav3.2-expressing KJMGER8 cells (Namalwa-derived); calcium response induced by 5 mmol/L CaCl2; 3 μmol/L mibefradil as reference; read-out: IC50 for the human Cav3.2 T-type Ca2+ current.
With `Cc1cc(C(=O)NC2CCC(F)(F)CC2)cc2nc(C(C)(C)O)c(CC3CCC(F)(F)CC3)n12` [Compound 9, N-(4,4-Difluorocyclohexyl)-3-[(4,4-difluorocyclohexyl)methyl]-2-(2-hydroxypropan-2-yl)-5-methylimidazo[1,2-a]pyridine-7-carboxamide], the IC50 was ≤ 100 nM.
With `Cc1cc(C(=O)Nc2ccccc2)cc2nc(C(C)O)c(CC3CCC(F)(F)CC3)n12` (stereo not shown) [Compound 20, 3-[(4,4-Difluorocyclohexyl)methyl]-2-(1-hydroxyethyl)-5-methyl-N-phenylimidazo[1,2-a]pyridine-7-carboxamide], the IC50 was ≤ 100 nM.
`Cc1cc(NC(=O)c2cc3nc(C(C)(C)Cl)c(S(=O)(=O)N4CC(F)(F)C4)n3cc2Cl)on1` [Compound 28, 6-Chloro-2-(2-chloropropan-2-yl)-3-(3,3-difluoroazetidin-1-ylsulfonyl)-N-(3-methylisoxazol-5-yl)imidazo[1,2-a]pyridine-7-carboxamide]: the IC50 is ≤ 100 nM.
